Series [1] can be described thus: Half-life was determined by hydrolysis of compound in a solution of peptidases. The series is classed as ADME.
The species named for series [2] is Rattus norvegicus. As to the kind of experiment: Fecal recovery in colostomized rats at 2 hr intervals for 48 h. In kind it is functional.
Series [3] is filed under the species Rattus norvegicus. The series can be described thus: Fecal recovery in non-colostomized rats at 2 hr intervals for 48 h. In kind it is functional.
For series [4], the species on record is Rattus norvegicus. The series can be described thus: Urinary recovery in colostomized rats at 2 hr intervals for 48 h. In kind it is functional, Urine.
Series [5] is filed under the species Rattus norvegicus. The series can be described thus: Urinary recovery in non-colostomized rats at 2 hr intervals for 48 h. In kind it is functional, Urine.

The compound `N[C@@H](CCC(=O)[O-])C(=O)Nc1ccc(O)c(C(=O)[O-])c1.[Na+].[Na+]` gave a half-life in series [1] of 1.35 h. In addition, the Fecal recovery in the series listed under Rattus norvegicus [2] is given as 44.2%; in the series listed under Rattus norvegicus [3], 44.29%. In addition, the Urinary recovery in the series filed under Rattus norvegicus [4] came out at 31.83%; in the series filed under Rattus norvegicus [5], 32.42%.

Consider `O=C(O)c1cc(/N=N/c2ccc(S(=O)(=O)Nc3ccccn3)cc2)ccc1O` [SULFASALAZINE], for which the Fecal recovery in the series listed under Rattus norvegicus [2] turned out to be 37.77%; in the series filed under Rattus norvegicus [3], 38.9%. In addition, the Urinary recovery in the series listed under Rattus norvegicus [4] was 33.34%; in the series listed under Rattus norvegicus [5], 32.21%.

As for `Nc1ccc(O)c(C(=O)O)c1` [MESALAMINE], the Fecal recovery in the series listed under Rattus norvegicus [2] came to 5.08%; in the series filed under Rattus norvegicus [3], 4.32%. Also, the Urinary recovery in the series listed under Rattus norvegicus [4] is 69.61%; in the series filed under Rattus norvegicus [5] it was 78.84%.

Consider `N[C@@H](CC(=O)[O-])C(=O)Nc1ccc(O)c(C(=O)[O-])c1.[Na+].[Na+]`, for which the Fecal recovery in the series filed under Rattus norvegicus [2] came out at 35.73%; in the series filed under Rattus norvegicus [3], 34.2%. For the same compound, the Urinary recovery in the series listed under Rattus norvegicus [4] is 32.66%; in the series filed under Rattus norvegicus [5], 30.09%.

The term half-life denotes how long it takes for the measured level to halve. A lower half-life goes with rapid decline.
